The values below come from US8921376B2, “Pyrrolopyridines useful as inhibitors of protein kinase” (Vertex Pharmaceuticals Incorporated, priority 2005, dated 2014).

Assay type in all cases: biochemical
The target in one assay is ROCK I (Homo sapiens, UniProt Q13464). The assay is described as follows: ROCK-I inhibition assay (radioactive enzyme assay, MBP substrate). Summed up:
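Human ROCK at 5 nM phosphorylated 27 μM myelin basic protein with 13 μM [γ-33P]ATP (final) in HEPES pH 7.5, MgCl2, NaCl, DTT and 1.5% DMSO. Reactions ran 2 h at room temperature before TCA quench and filter-plate scintillation counting. After background subtraction, data were fit to give Ki(app).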

The target of a further assay is T1, JAK3 (Homo sapiens, UniProt P52333).
T1 sequence (P52333 1-1124): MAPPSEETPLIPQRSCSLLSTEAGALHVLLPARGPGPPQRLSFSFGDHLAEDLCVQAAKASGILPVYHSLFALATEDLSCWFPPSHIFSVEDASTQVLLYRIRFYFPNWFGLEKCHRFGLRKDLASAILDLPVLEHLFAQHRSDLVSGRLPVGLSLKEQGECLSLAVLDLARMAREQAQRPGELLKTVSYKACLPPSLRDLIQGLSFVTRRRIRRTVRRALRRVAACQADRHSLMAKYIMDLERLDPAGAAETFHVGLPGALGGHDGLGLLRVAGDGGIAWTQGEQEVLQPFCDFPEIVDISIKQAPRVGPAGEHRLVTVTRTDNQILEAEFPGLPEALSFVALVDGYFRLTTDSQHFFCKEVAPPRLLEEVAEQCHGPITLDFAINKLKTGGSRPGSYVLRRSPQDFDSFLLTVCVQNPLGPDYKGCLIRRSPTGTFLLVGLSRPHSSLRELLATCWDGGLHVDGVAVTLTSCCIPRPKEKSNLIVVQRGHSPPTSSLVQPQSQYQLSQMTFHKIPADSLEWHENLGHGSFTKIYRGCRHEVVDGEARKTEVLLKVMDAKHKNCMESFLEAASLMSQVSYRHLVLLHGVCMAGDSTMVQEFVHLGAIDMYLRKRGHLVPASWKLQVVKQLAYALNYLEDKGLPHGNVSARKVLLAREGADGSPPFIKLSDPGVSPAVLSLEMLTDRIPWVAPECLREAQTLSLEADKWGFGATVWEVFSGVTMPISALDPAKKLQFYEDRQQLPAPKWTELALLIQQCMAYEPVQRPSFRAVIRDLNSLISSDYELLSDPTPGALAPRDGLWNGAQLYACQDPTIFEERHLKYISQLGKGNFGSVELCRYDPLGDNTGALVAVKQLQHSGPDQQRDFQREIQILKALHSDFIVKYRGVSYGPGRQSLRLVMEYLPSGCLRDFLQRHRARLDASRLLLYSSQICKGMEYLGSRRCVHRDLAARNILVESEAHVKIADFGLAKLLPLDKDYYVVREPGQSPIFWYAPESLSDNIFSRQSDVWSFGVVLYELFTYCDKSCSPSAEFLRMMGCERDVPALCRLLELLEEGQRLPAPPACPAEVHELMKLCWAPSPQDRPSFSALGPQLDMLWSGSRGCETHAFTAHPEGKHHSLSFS
The assay is described as follows: JAK3 inhibition assay (33P incorporation into poly(Glu)4Tyr). The procedure, abridged:
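After TCA quench and filter harvest, scintillation counting of 33P measured phosphorylation of poly(Glu)4Tyr (1 μM) by 1 nM JAK3. The 20-min, 25° C. reaction contained 5 μM ATP (200 μCi/μmole) in pH 7.4 HEPES buffer with 10 mM MgCl2.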

The target in a further assay is JAK2 (Homo sapiens, UniProt O60674). The assay is described as follows: JAK2 inhibition assay (as Example 3 with JAK-2 enzyme). Summed up:
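In HEPES pH 7.4 buffer with 10 mM MgCl2, 1 mM DTT, 25 mM NaCl and 0.01% BSA, JAK2 enzyme phosphorylated poly(Glu)4Tyr (final 15 μM) using 33P-ATP (final 12 μM) for 20 min at room temperature (25 °C). Reactions stopped with TCA; incorporated 33P measured by scintillation after filtration.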

[1] abbreviates: enzyme inhibition, Ki(app), Table 5.
[2] abbreviates: Table 6, enzyme inhibition data (Ki).

JAK2, sequence (O60674 whole entry): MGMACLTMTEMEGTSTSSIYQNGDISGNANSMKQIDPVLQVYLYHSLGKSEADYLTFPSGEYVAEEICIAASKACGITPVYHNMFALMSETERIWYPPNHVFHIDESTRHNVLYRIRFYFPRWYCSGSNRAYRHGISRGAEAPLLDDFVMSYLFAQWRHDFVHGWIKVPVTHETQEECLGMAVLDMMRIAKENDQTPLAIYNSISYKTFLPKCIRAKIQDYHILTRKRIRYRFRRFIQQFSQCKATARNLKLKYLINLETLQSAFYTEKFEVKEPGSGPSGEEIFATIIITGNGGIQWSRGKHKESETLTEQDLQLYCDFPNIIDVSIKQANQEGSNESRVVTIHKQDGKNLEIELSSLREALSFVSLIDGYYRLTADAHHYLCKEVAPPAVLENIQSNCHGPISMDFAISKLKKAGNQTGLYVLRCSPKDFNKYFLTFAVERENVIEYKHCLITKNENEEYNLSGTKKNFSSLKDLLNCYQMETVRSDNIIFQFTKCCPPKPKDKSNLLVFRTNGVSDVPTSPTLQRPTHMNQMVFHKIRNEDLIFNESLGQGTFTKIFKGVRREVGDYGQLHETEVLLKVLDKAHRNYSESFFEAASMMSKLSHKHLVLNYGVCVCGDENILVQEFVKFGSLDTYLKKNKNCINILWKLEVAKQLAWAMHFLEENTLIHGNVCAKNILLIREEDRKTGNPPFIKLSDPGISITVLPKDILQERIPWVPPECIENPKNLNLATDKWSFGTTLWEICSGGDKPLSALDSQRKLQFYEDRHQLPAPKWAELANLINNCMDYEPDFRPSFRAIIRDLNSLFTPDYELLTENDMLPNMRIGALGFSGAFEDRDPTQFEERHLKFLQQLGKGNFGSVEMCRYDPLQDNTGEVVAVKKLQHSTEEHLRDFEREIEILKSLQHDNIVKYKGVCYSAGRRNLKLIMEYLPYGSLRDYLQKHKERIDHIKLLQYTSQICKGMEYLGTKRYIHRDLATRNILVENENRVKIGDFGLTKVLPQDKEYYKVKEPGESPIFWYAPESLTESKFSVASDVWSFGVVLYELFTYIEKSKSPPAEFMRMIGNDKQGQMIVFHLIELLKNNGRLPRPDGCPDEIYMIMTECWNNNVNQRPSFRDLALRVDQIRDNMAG
ROCK I, sequence (Q13464 whole entry): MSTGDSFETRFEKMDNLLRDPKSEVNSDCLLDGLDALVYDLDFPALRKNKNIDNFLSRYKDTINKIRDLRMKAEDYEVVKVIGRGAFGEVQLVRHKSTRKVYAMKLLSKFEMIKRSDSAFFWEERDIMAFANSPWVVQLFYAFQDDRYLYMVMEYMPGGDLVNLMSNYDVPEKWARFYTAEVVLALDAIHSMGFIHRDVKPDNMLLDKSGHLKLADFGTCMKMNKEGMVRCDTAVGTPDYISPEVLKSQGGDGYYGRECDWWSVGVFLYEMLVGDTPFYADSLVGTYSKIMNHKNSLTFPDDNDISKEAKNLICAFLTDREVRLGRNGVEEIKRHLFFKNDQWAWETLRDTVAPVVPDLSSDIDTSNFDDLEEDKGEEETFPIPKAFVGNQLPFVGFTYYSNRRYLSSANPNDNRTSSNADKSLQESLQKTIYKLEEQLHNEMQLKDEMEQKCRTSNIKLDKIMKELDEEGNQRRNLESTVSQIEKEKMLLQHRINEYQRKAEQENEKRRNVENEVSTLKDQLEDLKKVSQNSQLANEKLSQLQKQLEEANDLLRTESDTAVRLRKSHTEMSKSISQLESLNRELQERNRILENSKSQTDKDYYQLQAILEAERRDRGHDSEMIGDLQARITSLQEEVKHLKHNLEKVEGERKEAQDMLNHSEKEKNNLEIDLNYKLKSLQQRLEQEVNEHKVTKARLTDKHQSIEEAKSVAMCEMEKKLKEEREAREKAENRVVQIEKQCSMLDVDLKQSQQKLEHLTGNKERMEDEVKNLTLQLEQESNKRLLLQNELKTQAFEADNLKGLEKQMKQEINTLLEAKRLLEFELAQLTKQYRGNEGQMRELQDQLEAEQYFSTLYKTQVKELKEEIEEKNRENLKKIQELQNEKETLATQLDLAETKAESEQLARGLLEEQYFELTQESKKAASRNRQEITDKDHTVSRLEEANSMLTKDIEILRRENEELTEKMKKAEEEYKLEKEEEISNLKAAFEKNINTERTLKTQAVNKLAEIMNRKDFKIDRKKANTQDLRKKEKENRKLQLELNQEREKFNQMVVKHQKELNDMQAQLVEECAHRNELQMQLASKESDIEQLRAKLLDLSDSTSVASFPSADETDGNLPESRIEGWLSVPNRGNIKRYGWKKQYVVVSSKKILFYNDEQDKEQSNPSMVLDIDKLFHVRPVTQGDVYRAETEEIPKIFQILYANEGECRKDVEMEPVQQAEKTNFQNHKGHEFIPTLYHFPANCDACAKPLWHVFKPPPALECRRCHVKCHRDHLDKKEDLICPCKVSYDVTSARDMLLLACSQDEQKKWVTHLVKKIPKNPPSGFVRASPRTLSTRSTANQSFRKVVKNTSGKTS

Regarding `CN(C)C(=O)c1cccc(-c2ccnc3[nH]ccc23)c1` [compound 92, N,N-Dimethyl-3-(1H-pyrrolo[2,3-b]pyridin-4-yl)-benzamide], the Ki lay in the range of 500 to 5000 nM at ROCK I (setting [1]); 500 to 5000 nM on JAK3 (enzyme inhibition, Table 5); 500 to 5000 nM at JAK2 (enzyme inhibition, Table 5).

`C=C(c1c(Cl)cnc2[nH]ccc12)C1CCCCC1` [compound 69]: the Ki at ROCK I (setting [1]) is 500 to 5000 nM; at JAK3 (enzyme inhibition, Table 5), less than 500 nM; on JAK2 (enzyme inhibition, Table 5), 500 to 5000 nM.

`COCCN(CCOC)C(=O)c1cc(-c2c(Cl)cnc3[nH]ccc23)c[nH]1` [compound 339]: the Ki was greater than 4000 nM on ROCK I (setting [2]), less than 500 nM at JAK3 (setting [2]) and less than 500 nM on JAK2 (setting [2]).

`CCCCN(CCC#N)C(=O)c1ccc(-c2ccnc3[nH]ccc23)s1` [compound 321]: the Ki on ROCK I (setting [2]), at JAK3 (setting [2]) and at JAK2 (setting [2]) was less than 500 nM in each case.

Take `CCCN(CC(F)(F)F)C(=O)c1cc(-c2c(F)cnc3[nH]ccc23)c[nH]1` [compound 388]: the Ki at ROCK I (setting [2]), on JAK3 (setting [2]) and at JAK2 (setting [2]) was less than 500 nM in each case.

In the case of `CCN(Cc1ccncc1)C(=O)c1cc(-c2ccnc3[nH]ccc23)c[nH]1` [compound 369], the Ki on ROCK I (setting [2]), on JAK3 (setting [2]) and at JAK2 (setting [2]) was less than 500 nM each time.

In the case of `Fc1cccc(-c2ccnc3[nH]ccc23)n1` [compound 50, 4-(6-fluoropyridin-2-yl)-1H-pyrrolo[2,3-b]pyridine], the Ki at ROCK I (setting [1]) was 500 to 5000 nM; on JAK3 (enzyme inhibition, Table 5) it was 500 to 5000 nM; at JAK2 (enzyme inhibition, Table 5) it was 500 to 5000 nM.

As for `CNC(=O)c1cc(-c2c(Cl)cnc3[nH]ccc23)c[nH]1` [compound 277], the Ki on ROCK I (setting [2]) is 500 to 5000 nM; at JAK3 (setting [2]) it was less than 500 nM; at JAK2 (setting [2]), less than 500 nM.

As to `CC(C)(CO)CNc1cccc(-c2ccnc3[nH]ccc23)n1` [compound 57, 3-(6-(1H-Pyrrolo[2,3-b]pyridin-4-yl)pyridin-2-ylamino)-2,2-dimethylpropan-1-ol], the Ki on ROCK I (setting [1]) was 500 to 5000 nM; at JAK3 (enzyme inhibition, Table 5), greater than 5000 nM; on JAK2 (enzyme inhibition, Table 5) it was 500 to 5000 nM.

On to `CNC(=O)c1ccc(-c2ccnc3[nH]ccc23)cc1` [compound 272], for which the Ki on ROCK I (setting [2]), on JAK3 (setting [2]) and on JAK2 (setting [2]) was less than 500 nM each time.

Take `O=C(c1cc(-c2c(F)cnc3[nH]ccc23)c[nH]1)N(CC1CC1)CC(F)(F)F` [compound 387]: the Ki at ROCK I (setting [2]), at JAK3 (setting [2]) and at JAK2 (setting [2]) was less than 500 nM throughout.

With `CC(C)(C)OC(=O)N1CCC[C@@H](Nc2c(Cl)cnc3[nH]ccc23)C1` [compound 164], the Ki on ROCK I (setting [2]) is greater than 4000 nM; at JAK3 (setting [2]), less than 500 nM; at JAK2 (setting [2]), less than 500 nM.

Turning to `c1cc(-c2ccnc3[nH]ccc23)nc(N2CCc3ccccc3C2)c1` [compound 38, 2-(6-(1H-Pyrrolo[2,3-b]pyridin-4-yl)pyridin-2-yl)-1,2,3,4-tetrahydroisoquinoline], the Ki was 500 to 5000 nM on ROCK I (setting [1]); 500 to 5000 nM at JAK3 (enzyme inhibition, Table 5); 500 to 5000 nM on JAK2 (enzyme inhibition, Table 5).

Regarding `O=S(=O)(c1ccccc1)n1cc(-c2c(Cl)cnc3[nH]ccc23)c2ccccc21` [compound 148], the Ki on ROCK I (setting [2]) was greater than 4000 nM; at JAK3 (setting [2]), 500 to 5000 nM; at JAK2 (setting [2]), 500 to 5000 nM.

Turning to `CCNC(=O)c1ccccc1-c1ccnc2[nH]ccc12` [compound 257], the Ki at ROCK I (setting [2]) is greater than 4000 nM; on JAK3 (setting [2]), greater than 5000 nM; at JAK2 (setting [2]) it was greater than 5000 nM.

With `O=C(O)c1cc(-c2ccnc3[nH]ccc23)c[nH]1` [compound 274], the Ki at ROCK I (setting [2]) was greater than 4000 nM; on JAK3 (setting [2]) it was less than 500 nM; at JAK2 (setting [2]), 500 to 5000 nM.

As for `Cc1ccc(-c2ccnc3[nH]ccc23)cc1C` [compound 110, 4-(3,4-Dimethyl-phenyl)-1H-pyrrolo[2,3-b]pyridine], the Ki on ROCK I (setting [1]) is less than 500 nM; on JAK3 (enzyme inhibition, Table 5), less than 500 nM; at JAK2 (enzyme inhibition, Table 5) it was less than 500 nM.

On to `O=C(c1cccc(-c2ccnc3[nH]ccc23)c1)N1CCCCC1` [compound 93, Piperidin-1-yl-[3-(1H-pyrrolo[2,3-b]pyridin-4-yl)-phenyl]-methanone], for which the Ki on ROCK I (setting [1]) is 500 to 5000 nM; at JAK3 (enzyme inhibition, Table 5), 500 to 5000 nM; at JAK2 (enzyme inhibition, Table 5), greater than 5000 nM.
